≈ marks a conversion by molar mass, not a printed value.
Experiments:
Assay in all cases: ≥ marks a high value that may be exact or a test limit, other limits are often not marked, values filed in µg/mL are converted to µM
[1] = tested on: Penicillium expansum EPS 26
[2] = tested on: Xanthomonas vesicatoria 2133-2
[3] = tested on: Erwinia amylovora PMV 6076
[4] = tested on: Fusarium oxysporum f. sp. lycopersici ATCC 201829
[5] = tested on: Pseudomonas syringae EPS 94
[6] = tested on: Rhizopus stolonifer CECT 2344
[7] = tested on: Aspergillus niger CECT 2694
[8] = tested on: Staphylococcus aureus 5118
[9] = tested on: Staphylococcus aureus E4049
[10] = tested on: Staphylococcus aureus ATCC 9144
[11] = tested on: Staphylococcus aureus DSM 20231
[12] = tested on: Bacillus subtilis DSM 402
[13] = tested on: Staphylococcus aureus ATCC 43300
[14] = tested on: Escherichia coli DSM 30083
[15] = tested on: Streptococcus mutans UA159
[16] = tested on: Streptococcus sanguinis ATCC 49295
[17] = tested on: Streptococcus gordonii ATCC 10558
[18] = tested on: Streptococcus mutans GS-5
[19] = tested on: Fusarium solani MTCC 10158
[20] = tested on: Xanthomonas axonopodis ITCC BD00029
Vibrio cholerae = tested on: Vibrio cholerae
Bacillus cereus = tested on: Bacillus cereus
[21] = tested on: Salmonella enterica subsp. enterica serovar Typhi
[22] = tested on: Escherichia coli DH5alpha
[23] = tested on: Xanthomonas oryzae ITCC BB00026
[24] = tested on: Candida albicans MTCC 227
[25] = tested on: Staphylococcus aureus ATCC 6538
[26] = tested on: Bacillus subtilis ATCC 6633
[27] = tested on: Pseudomonas aeruginosa ATCC 27853
[28] = tested on: Micrococcus luteus NCIMB 13267
Escherichia coli K-12 = tested on: Escherichia coli K-12
[29] = tested on: Klebsiella pneumoniae CGMCC 1.1736
[30] = tested on: Staphylococcus aureus CGMCC 1.8721
[31] = tested on: Pseudomonas aeruginosa CGMCC 1.2421
[32] = tested on: Staphylococcus epidermidis CGMCC 1.4260
[33] = tested on: Bacillus subtilis CGMCC 1.3376
[34] = tested on: Escherichia coli CGMCC 1.8732
[35] = tested on: Staphylococcus aureus ATCC 6538P
[36] = tested on: Escherichia coli K-12 594
[37] = tested on: Staphylococcus aureus SR1550
[38] = tested on: Bacillus subtilis CMCC 63501
[39] = tested on: Staphylococcus aureus CMCC 26003
[40] = tested on: Listeria monocytogenes ATCC 19115

Q: Which results are given for `CC[C@H](C)[C@H](NC(=O)[C@H](CCCCN)NC(=O)[C@H](CCCCN)NC(=O)[C@H](Cc1ccccc1)NC(=O)[C@H](CC(C)C)NC(=O)[C@H](CCCCN)NC(=O)[C@@H](N)Cc1c[nH]c2ccccc12)C(=O)N[C@@H](CC(C)C)C(=O)N[C@@H](CCCCN)C(=O)N[C@@H](Cc1c[nH]c2ccccc12)C(=O)N[C@@H](CC(C)C)C(N)=O` [WKLFKKILKWL]?
A: MIC [1]: 22.4 µM (≈ 33.6 µg/mL); MIC [2]: 2 µM (≈ 3 µg/mL); MIC [3]: 5.92 µM (≈ 8.89 µg/mL); MIC [4]: 1.73 µM (≈ 2.6 µg/mL); MIC [5]: 5.92 µM (≈ 8.89 µg/mL); MIC [6]: ≥ 35.4 µM; MIC [7]: 22.4 µM (≈ 33.6 µg/mL)

Q: Which results are given for `CC[C@H](C)[C@H](NC(=O)CNC(=O)[C@H](CC(=O)O)NC(=O)[C@@H](N)CC(=O)O)C(=O)N[C@@H](Cc1ccccc1)C(=O)N[C@H](C(=O)N[C@@H](C)C(=O)N[C@@H](Cc1ccccc1)C(=O)N[C@H](C(=O)N[C@@H](C)C(=O)N[C@H](C(=O)N[C@@H](CC(N)=O)C(=O)N[C@H](C(=O)N[C@H](C(=O)N[C@@H](CC(C)C)C(=O)N[C@H](C(=O)N[C@H](C(=O)N[C@H](C(=O)N[C@@H](Cc1ccccc1)C(=O)N[C@@H](Cc1ccc(O)cc1)C(=O)O)[C@@H](C)CC)C(C)C)[C@@H](C)O)[C@@H](C)CC)[C@@H](C)CC)[C@@H](C)CC)[C@@H](C)CC)[C@@H](C)CC` [DDGIFIAFIAINIILTVIFY]?
A: MIC [8]: 2.2 µM (≈ 5 µg/mL); MIC [9]: ≥ 271 µM; MIC [10]: ≥ 271 µM

Q: How did the MIC [11] turn out when `NCCCC[C@H](N)C(=O)N[C@@H](CCCN=C(N)N)C(=O)N[C@@H](Cc1c[nH]c2ccccc12)C(=O)N[C@@H](CCCN=C(N)N)C(=O)N[C@@H](Cc1c[nH]c2ccccc12)C(=O)N[C@@H](CCCN=C(N)N)C(=O)N[C@@H](Cc1c[nH]c2ccccc12)C(=O)O` [KRWRWRW] was run?
A: The MIC was no less than 37 µM.

Q: What about the MIC [12] of the same compound?
A: Its MIC is 2 µM (≈ 2.35 µg/mL).

Q: And the MIC [13]?
A: Its MIC is 12.7 µM (≈ 14.9 µg/mL).

Q: And the MIC [14]?
A: The MIC was 18 µM (≈ 21.1 µg/mL).

Q: How did the MIC [15] turn out when `CC(C)C[C@H](NC(=O)[C@H](CCCN=C(N)N)NC(=O)[C@H](Cc1ccccc1)NC(=O)[C@H](Cc1ccccc1)NC(=O)[C@@H](NC(=O)[C@H](CO)NC(=O)[C@@H](N)CC(C)C)[C@@H](C)O)C(=O)N[C@@H](Cc1ccccc1)C(=O)N[C@@H](CC(N)=O)C(=O)NCC(=O)N[C@@H](CCCN=C(N)N)C(=O)N[C@@H](CCCN=C(N)N)C(=O)N[C@@H](CCCN=C(N)N)C(=O)N[C@@H](CCCN=C(N)N)C(=O)N[C@@H](CO)C(=O)N[C@H](C(=O)N[C@@H](CCC(N)=O)C(=O)N[C@@H](Cc1c[nH]c2ccccc12)C(=O)N[C@@H](CS)C(=O)N[C@@H](C)C(=O)O)C(C)C` [LSTFFRLFNGRRRRSVQWCA] was run?
A: The MIC was 4.27 µM (≈ 10.7 µg/mL).

Q: What about the MIC [16] of the same compound?
A: The MIC was no less than 39.8 µM.

Q: What about the MIC [17] of the same compound?
A: Its MIC is 19.9 µM (≈ 49.8 µg/mL).

Q: And the MIC [18]?
A: The MIC was 5.33 µM (≈ 13.3 µg/mL).

Q: Which MIC [19] does the source give for `NCCCC[C@H](NC(=O)[C@H](CCCCN)NC(=O)[C@H](CO)NC(=O)[C@H](CO)NC(=O)[C@H](CCCCN)NC(=O)[C@H](Cc1c[nH]c2ccccc12)NC(=O)[C@H](CCCN=C(N)N)NC(=O)[C@H](Cc1c[nH]c2ccccc12)NC(=O)[C@H](CCCN=C(N)N)NC(=O)[C@@H](N)CO)C(=O)O` [SRWRWKSSKK] here?
A: The MIC was 20 µM (≈ 27 µg/mL).

Q: And the MIC [20]?
A: Its MIC is 10 µM (≈ 13.5 µg/mL).

Q: And the MIC (Vibrio cholerae)?
A: The MIC was 30 µM (≈ 40.5 µg/mL).

Q: What about the MIC (Bacillus cereus) of the same compound?
A: Its MIC is 30 µM (≈ 40.5 µg/mL).

Q: What about the MIC [21] of the same compound?
A: The MIC was 20 µM (≈ 27 µg/mL).

Q: What about the MIC [22] of the same compound?
A: The MIC was 30 µM (≈ 40.5 µg/mL).

Q: And the MIC [23]?
A: The MIC was 10 µM (≈ 13.5 µg/mL).

Q: What about the MIC [24] of the same compound?
A: The MIC was no less than 40 µM.

Q: And the MIC [13]?
A: The MIC was 20 µM (≈ 27 µg/mL).

Q: Which results are given for `CC[C@H](C)[C@H](NC(=O)[C@H](CCC(=O)O)NC(=O)[C@H](CCC(N)=O)NC(=O)[C@H](CCC(=O)O)NC(=O)[C@H](CC(C)C)NC(=O)[C@H](C)NC(=O)[C@H](C)NC(=O)[C@@H](NC(=O)[C@H](CCC(=O)O)NC(=O)[C@H](CCC(N)=O)NC(=O)[C@H](CCC(=O)O)NC(=O)[C@H](CC(C)C)NC(=O)[C@H](C)NC(=O)[C@H](C)NC(=O)[C@@H](NC(=O)[C@@H](N)CCC(N)=O)[C@@H](C)CC)[C@@H](C)CC)C(=O)N[C@@H](C)C(=O)N[C@@H](C)C(=O)N[C@@H](CC(C)C)C(=O)N[C@@H](CCC(N)=O)C(=O)O` [QIAALEQEIAALEQEIAALQ]?
A: MIC [25]: 250 µM (≈ 538 µg/mL); MIC [26]: ≥ 250 µM; MIC [27]: 250 µM (≈ 538 µg/mL); MIC [28]: ≥ 250 µM; MIC (Escherichia coli K-12): ≥ 250 µM

Q: Which results are given for `CC[C@H](C)[C@H](NC(=O)[C@H](CO)NC(=O)CNC(=O)[C@@H](NC(=O)[C@@H](N)CCCN=C(N)N)[C@@H](C)CC)C(=O)N[C@@H](CC(C)C)C(=O)NCC(=O)N[C@@H](CCCN=C(N)N)C(=O)N[C@@H](CC(C)C)C(=O)N[C@@H](C)C(=O)N[C@@H](CCCCN)C(=O)NCC(=O)N[C@@H](CC(C)C)C(=O)N1CCC[C@H]1C(=O)N[C@H](C(=O)N[C@@H](CC(C)C)C(=O)N[C@H](C(=O)N[C@@H](CO)C(=O)N[C@@H](Cc1c[nH]c2ccccc12)C(=O)N[C@H](C(=O)N[C@@H](CCCCN)C(=O)N[C@@H](CC(N)=O)C(=O)N[C@@H](CCCN=C(N)N)C(N)=O)[C@@H](C)CC)[C@@H](C)CC)[C@@H](C)O` [RIGSILGRLAKGLPTLISWIKNR]?
A: MIC [29]: 6.25 µM (≈ 16 µg/mL); MIC [30]: 12.5 µM (≈ 32 µg/mL); MIC [31]: 6.25 µM (≈ 16 µg/mL); MIC [32]: 3.13 µM (≈ 8.02 µg/mL); MIC [33]: 6.25 µM (≈ 16 µg/mL); MIC [34]: 6.25 µM (≈ 16 µg/mL)

Q: For `CC(C)C[C@H](NC(=O)[C@H](CC(C)C)NC(=O)[C@H](CC(C)C)NC(=O)[C@H](CC(C)C)NC(=O)[C@H](CC(C)C)NC(=O)[C@H](CCCCN)NC(=O)[C@H](CC(C)C)NC(=O)[C@@H](N)CCCCN)C(N)=O` [KLKLLLLL], which MIC [35] is on record?
A: Its MIC is 8.39 µM (≈ 7.99 µg/mL).

Q: And the MIC [36]?
A: The MIC was 21 µM (≈ 20 µg/mL).

Q: What about the MIC [37] of the same compound?
A: The MIC was no less than 36.7 µM.

Q: Which MIC [38] does the source give for `CC[C@H](C)[C@H](NC(=O)[C@H](CCCN=C(N)N)NC(=O)[C@H](CCCN=C(N)N)NC(=O)[C@H](Cc1c[nH]c2ccccc12)NC(=O)[C@@H](N)Cc1ccccc1)C(=O)N[C@@H](CCCN=C(N)N)C(=O)N[C@H](C(N)=O)C(C)C` [FWRRIRV] here?
A: Its MIC is no less than 124 µM.

Q: What about the MIC [39] of the same compound?
A: Its MIC is no less than 62 µM.

Q: And the MIC [40]?
A: The MIC was 31 µM (≈ 32 µg/mL).

From DBAASP
